SMILES strings stand for the structures.

The test system of data set [1] is normal bone marrow cells. The data set can be described thus: In vitro purging of normal bone marrow, then colony assay. It counts as cell-based. How it is done: Heparinized bone marrow cells were layered over Percoll (1.077 gm/ml) (Pharmacia Fine Chemical, Piscataway N.J.) and centrifuged at 400 g at 4° C. for 10 minutes to remove neutrophils and RBCs.
For the purging process, the cells were resuspended at 1×10^6/ml in complete medium with or without 50 μM CR4. The cells were incubated with the CR4 for two and a half hours at 37° C., 5% CO2. At the end of this period the cells were thoroughly washed in medium to remove CR4 and then cultured at 2×10^5 cells/ml in IMDM (OCl, Toronto) containing 0.9% (vol/vol) methylcellulose supplemented with 30% FCS (Cansera Rexdale, ON.) or normal human plasma, a cocktail of cytokines containing G-CSF (10 ng/ml, Amgen), IL-3 (40 U/ml, Immunex), MGF (50 ng/ml, Immunex), Etryhropoietin (2 u/ml, Epprex) or TPO (10 ng/ml, Amgen) and 5×10^−5M b-2-mercaptoethanol. The culture mixture was plated in 1 ml volumes into 35 mm petri dishes and incubated at 37° C., 5% CO2 in a humidified atmosphere. All cultures were evaluated at 14 days for the number of BFU-E colonies (defined as aggregates of more than 500 hemaglobinized cells or, 3 or more erythroid subcolonies), CFU-C colonies (defined as granulocyte or monocyte-macrophage cells or both) and CFU-GEMM colonies (a mixed population comprising of all elements).
For the purging process, the cells were resuspended at 1×10^6/ml in complete medium with or without 50 μM CR11. The cells were incubated with the tryrphostin for seven hours at 37° C., 5% CO2. At the end of this period the cells were thoroughly washed in medium to remove CR11 and then cultured at 2×10^5 cells/ml in IMDM (OCl, Toronto) containing 0.9% (vol/vol) methylcellulose supplemented with 30% FCS (Cansera Rexdate, ON.) or normal human plasma, a cocktail of cytokines containing G-CSF (10 ng/ml, Amgen), IL-3 (40 U/ml, Immunex), MGF (50 ng/ml, Immunex), Erythropoietin (2 u/ml, Epprex) or TPO (10 ng/ml, Amgen) and 5×10^−5M β-2-mercaptoethanol. The culture mixture was plated in 1 ml volumes into 35 mm petri dishes and incubated at 37° C., 5% CO2 in a humidified atmosphere. All cultures were evaluated at 14 days for the number of BFU-E colonies (defined as aggregates of more than 500 hemoglobinized cells or, 3 or more erythroid subcolonies), CFU-C colonies (defined as granulocyte or monocyte-macrophage cells or both) and CFU-GEMM colonies (a mixed population comprising of all elements).

Data set [2] concerns acute lymphoblastic leukemia, Philadelphia positive ALL, acute myeloid leukemia, myeloma and B-lineage lymphoma. Put plainly: Growth of cancer cells in culture, summary over cell types. In kind it is cell-based. As to conditions: for effectiveness against a variety of cell types (Acute Lymphoblastic Leukemia, Philadelphia positive Leukemia, Acute Myeloid Leukemia): in culture.

For another data set, the system named is Ph+ ALL cells. The data set can be described thus: In vitro purging of Philadelphia positive ALL with CR11. In kind it is cell-based, human. As to conditions: 50 μM, 7 hours exposure (FIG. 22). How it is done: For the purging assay, the cells were resuspended in complete medium with or without CR11 as indicated and incubated at 37° C., 5% CO2 for 0-7 hours. Cells were then washed thoroughly with medium to remove the CR11, resuspended and plated in 1 ml volumes, in the absence of exogenous growth factors, into 35 mm petri dishes (Nunc, Gibco) containing alpha MEM (Gibco) plus 20% FCS (Cansera Rexdale, ON.) in 0.9% (vol/vol) methylcellulose (Fluka, Switzerland). Cultures were set at 37° C., 5% CO2 in a humidified atmosphere. Colonies consisting of more than 20 cells were counted at 9 days or earlier using an inverted microscope.

For data set [3], the system named is Philadelphia positive ALL, AML and lymphoma. The data set can be described thus: High dose in vitro (ex vivo) purging assays, summary. In kind it is cell-based. From the text: […] Cancer cell death was effected by the induction of apoptosis. Accordingly, in another aspect of the invention, there is provided a method for killing cancer cells by ex vivo treatment of bone marrow from a patient with cancer with a compound of the invention, preferably CR4 and CR11 and then re-introducing the treated (or purged) bone marrow into the patient.

Data set [4] relates to normal bone marrow cells. Put plainly: CFU-GEMM assay: normal bone marrow differentiation in culture. In kind it is cell-based. The conditions noted are these: for inhibition of BFU-E colony formation: 20 μM. As to the method: (§1) The CFU-GEMM assay was performed according to Fauser and Messner (1978, Blood, 52(6) 143-8) and Messner and Fausser (1980, Blut, 41(5) 327-33) with some variations. In brief, heparinized bone marrow cells were layered over Percoll (1.077 gm/ml) (Pharmacia Fine Chemical, Piscataway N.J.) and centrifuged at 400 g at 4° C. for 10 minutes to remove neutrophils and RBCs. The fractionated BM cells at 2×10^5 cells/ml were cultured in IMDM (OCl, Toronto) containing 0.9% (vol/vol) methylcellulose supplemented with 30% FCS (Cansera Rexdale, ON.) or normal human plasma, a cocktail of cytokines containing G-CSF (10 ng/ml, Amgen), IL-3 (40 U/ml, Immunex), MGF (50 ng/ml, Immunex), Erythropoietin (2 u/ml, Epprex) or TPO (10 ng/ml, Amgen), 5×10^−5M β-2-mercaptoethanol and the specified concentration of CR4. The culture mixture was plated in 1 ml volumes into 35 mm petri dishes and incubated at 37° C., 5% CO2 in a humidified atmosphere. All cultures were evaluated at 14 days for the number of BFU-E colonies (defined as aggregates of more than 500 hemoglobinized cells or, 3 or more erythroid subcolonies), OFU-GM colonies (defined as granulocyte or monocyte-macrophage cells or both), CFU-Meg colonies (comprising 4 or more megakaryocytes) and CFU-GEMM colonies (a mixed population comprising of all elements).
as §1, with “1243-8)” for “143-8)”, “concentrations” for “concentration”, “CR19.” for “CR4.”, “hemaglobinized” for “hemoglobinized”, “subcolonies) and CFU-C” for “subcolonies), OFU-GM”, “both).” for “both), CFU-Meg colonies (comprising 4 or more megakaryocytes) and CFU-GEMM colonies (a mixed population comprising of all elements).”
as §1, with “1243-8)” for “143-8)”, “variations (British Journal of Haematology, 1992, 80, p40-48).” for “variations.”, “test compound.” for “CR4.”, “CO2,” for “CO2”, “subcolonies) and CFU-C” for “subcolonies), OFU-GM”, “both).” for “both), CFU-Meg colonies (comprising 4 or more megakaryocytes) and CFU-GEMM colonies (a mixed population comprising of all elements).”

Data set [5] deals with Philadelphia positive acute lymphoblastic leukemia (Ph+ ALL) cells. Put plainly: Colony growth of Philadelphia positive ALL cells in methylcellulose culture. It counts as cell-based, human. How it is done:
Ph+ ALL cells were plated in 1 ml volumes, in the absence of exogenous growth factors, into 35 mm petri dishes (Nunc, Gibco) containing alpha MEM (Gibco) plus 10% FCS (Cansera Rexdale, ON.) in 0.9% (vol/vol) methylcellulose (Fluka, Switzerland) with the indicated concentrations of CR4. Cultures were set at 37° C., 5% CO2 in a humidified atmosphere. Colonies consisting of more than 20 cells were counted at 12 days or earlier using an inverted microscope.
ALL cells were plated in 1 ml volumes, in the absence of exogenous growth factors, into 35 mm petri dishes (Nunc, Gibco) containing alpha MEM (Gibco) plus 20% FCS (Cansera Rexdale, ON.) in 0.9% (vol/vol) methylcellulose (Fluka, Switzerland) and the indicated concentrations of compound Cultures were set at 37° C., 5% CO2 in a humidified atmosphere Colonies consisting of more than 20 cells were counted at 12 days or earlier using an inverted microscope.
ALL cells were plated in 1 ml volumes, in the absence of exogenous growth factors, into 35 mm petri dishes (Nunc, Gibco) containing alpha MEM (Gibco) plus 20% FCS (Cansera Rexdale, ON) in 0.90% (vol/vol) methylcellulose (Fluka, Switzerland) and the indicated concentrations of compound. Cultures were set at 37° C., 5% CO2 in a humidified atmosphere. Colonies consisting of more than 20 cells were counted at 12 days or earlier using an inverted microscope.
ALL cells were plated in 1 ml volumes, in the absence of exogenous growth factors, into 35 mm petri dishes (Nunc, Gibco) containing alpha MEM (Gibco) plus 20% FCS (Cansera Rexdale, ON.) in 0.9% (vol/vol) methylcellulose (Fluka, Switzerland) and the indicated concentrations of CR24. Cultures were set at 37° C., 5% CO2 in a humidified atmosphere. Colonies consisting of more than 20 cells were counted at 9 days or earlier using an inverted microscope.
ALL cells were plated in 1 ml volumes, in the absence of exogenous growth factors, into 35 mm petri dishes (Nunc, Gibco) containing alpha MEM (Gibco) plus 20% FCS (Cansera Rexdale, ON.) in 0.9% (vol/vol) methylcellulose (Fluka, Switzerland) and the indicated concentrations of CR19. Cultures were set at 37° C., 5% CO2 in a humidified atmosphere. Colonies consisting of more than 20 cells were counted at 9 days or earlier using an inverted microscope.

Setting [6] is: low nanomolar doses, long term exposure.

Turning to `COc1cc(/C=C/C=C(\C#N)C(=O)NCc2ccc(O)c(O)c2)cc(OC)c1O` [CR11, (EE)-2-(3,4-Dihydroxybenzylaminocarbonyl)-3-(3,5-dimethoxy-4-hydroxystyryl)acrylonitrile], the “BFU-E, CFU-GEMM and CFU-C colonies” value in the data set on normal bone marrow cells [1] (seven hours exposure to 50 μM (FIG. 21)) is recorded as “all normal”. For the same compound, the “inhibition of colony formation” value in the data set on normal bone marrow cells [1] (seven hours exposure to 50 μM, colonies at 14 days (FIG. 21)) was “did not result in any significant inhibition”. For the same compound, in data set [2], the “effectiveness against a variety of cell types (Acute Lymphoblastic Leukemia, Philadelphia positive Leukemia, Acute Myeloid Leukemia)” value is “highly effective”. In addition, the “killing of Ph+ ALL cells” value with Ph+ ALL cells is “complete killing”. The “effectiveness as ex vivo purging agents” value in data set [3] is “effective”.

Take `N#C/C(=C\C=C\c1ccc(O)c(O)c1)C(N)=O` [CR17, (E,E)-2-Aminocarbonyl-3-(3,4-dihydroxystyryl)acrylonitrile]: in the data set with normal bone marrow cells [4] (14 days (FIG. 13)), the “inhibition of BFU-E colony formation” value was “caused inhibition”. Further, the “inhibition of cell growth” value is “significant inhibition” in data set [5] (1-2.5 μM, Example 42, FIG. 8) and “significant inhibition” in data set [5] (1-2.5 μM, Example 43, FIG. 9).

As to `COc1cc(/C=C/C=C(\C#N)C(=O)NCCO)cc(OC)c1O` [CR24, (E,E)-2-(β-Ethanolaminocarbonyl)-3-(3,5-dimethoxy-4-hydroxystyryl)acrylonitrile], in the data set on normal bone marrow cells [4] (either 10 or 20 μM, 14 days (FIG. 13)), the “inhibition of bone marrow colony formation” value is given as “minimal inhibition”. For the same compound, the “inhibition of cell growth” value in data set [5] (between 2.5 and 5 μM, colonies at 9 days (FIG. 10)) is “virtually complete inhibition”. Also, in data set [5] (concentrations as low as 0.5 μM, colonies at 9 days (FIG. 10)), the “effectiveness against Ph+ ALL cells” value is listed as “effective”.

For the compound `N#C/C(=C\C=C\c1ccc(O)c(O)c1)C(=O)NCc1ccc(O)c(O)c1` [CR21, (E,E)-2(3,4-Dihydroxybenzylaminocarbonyl)-3-(3,4-dihydroxystyryl)acrylonitrile], the “inhibition of BFU-E colony formation” value with normal bone marrow cells [4] (14 days (FIG. 13)) is recorded as “caused inhibition”. For the same compound, the “inhibition of cell growth” value in data set [5] (5 μM, Example 42, FIG. 8) was “inhibited cell growth”; in data set [5] (1-2.5 μM, Example 43, FIG. 9), “significant inhibition”.

`N#C/C(=C\C=C\c1ccccc1)C(=O)NCc1ccc(O)c(O)c1` [CR19, (E,E)-2-(3,4-Dihydroxybenzylaminocarbonyl)-3-styrylacrylonitrile]: in the data set with normal bone marrow cells [4] (2.5 μM, 14 days (FIG. 12)), the CFU-C colony formation entry was “boosted” and the “inhibition of the development of BFU-E colonies” value is on record as “significant inhibition”. Also, in the data set with normal bone marrow cells [4] (5 μM, 14 days (FIG. 12)), the BFU-E colonies entry is listed as “virtually absent” and the “CFU-C colony formation (stimulatory effect)” value is “stimulatory effect disappeared”. Moreover, in the data set with normal bone marrow cells [4] (setting [6]), the “normal cell growth and differentiation” value was “unaffected”. The “effectiveness against a variety of cell types (Acute Lymphoblastic Leukemia, Philadelphia positive Leukemia, Acute Myeloid Leukemia)” value in data set [2] was “highly effective”. Also, the “toxicity to cancer cells” value in data set [2] (setting [6]) was “highly toxic”. Moreover, the “effectiveness against Ph+ ALL cells” value in data set [5] (nanomolar concentrations, colonies at 9 days (FIG. 11)) is reported as “highly effective”.

Source of the values: US6800659B2, “Compounds for modulating cell proliferation” (HSC Research and Development Limited Partnership, priority 2000, dated 2004).
